Reference: US9981963B2, “3-(1H-pyrazol-4-yl)-1H-pyrrolo[2,3-c]pyridine derivatives as NIK inhibitors” (Janssen Pharmaceutica NV, priority 2013, dated 2018)

Tests used:
[1] = target: T1, Recombinant Human NF-kappaB-inducing Kinase (NIK/MAP3K14) (Homo sapiens (Human), UniProt Q99558); assay: Biological Assay A: inhibition of recombinant human NIK/MAP3K14 activity (MSD, MBP substrate); conditions: 25 μM ATP, 10 nM NIK/MAP3K14, 1 h at 25° C.; averaged over all measurements on all batches; read-out: Biochemical (MSD MBP) IC50
T1 sequence (Q99558 whole entry): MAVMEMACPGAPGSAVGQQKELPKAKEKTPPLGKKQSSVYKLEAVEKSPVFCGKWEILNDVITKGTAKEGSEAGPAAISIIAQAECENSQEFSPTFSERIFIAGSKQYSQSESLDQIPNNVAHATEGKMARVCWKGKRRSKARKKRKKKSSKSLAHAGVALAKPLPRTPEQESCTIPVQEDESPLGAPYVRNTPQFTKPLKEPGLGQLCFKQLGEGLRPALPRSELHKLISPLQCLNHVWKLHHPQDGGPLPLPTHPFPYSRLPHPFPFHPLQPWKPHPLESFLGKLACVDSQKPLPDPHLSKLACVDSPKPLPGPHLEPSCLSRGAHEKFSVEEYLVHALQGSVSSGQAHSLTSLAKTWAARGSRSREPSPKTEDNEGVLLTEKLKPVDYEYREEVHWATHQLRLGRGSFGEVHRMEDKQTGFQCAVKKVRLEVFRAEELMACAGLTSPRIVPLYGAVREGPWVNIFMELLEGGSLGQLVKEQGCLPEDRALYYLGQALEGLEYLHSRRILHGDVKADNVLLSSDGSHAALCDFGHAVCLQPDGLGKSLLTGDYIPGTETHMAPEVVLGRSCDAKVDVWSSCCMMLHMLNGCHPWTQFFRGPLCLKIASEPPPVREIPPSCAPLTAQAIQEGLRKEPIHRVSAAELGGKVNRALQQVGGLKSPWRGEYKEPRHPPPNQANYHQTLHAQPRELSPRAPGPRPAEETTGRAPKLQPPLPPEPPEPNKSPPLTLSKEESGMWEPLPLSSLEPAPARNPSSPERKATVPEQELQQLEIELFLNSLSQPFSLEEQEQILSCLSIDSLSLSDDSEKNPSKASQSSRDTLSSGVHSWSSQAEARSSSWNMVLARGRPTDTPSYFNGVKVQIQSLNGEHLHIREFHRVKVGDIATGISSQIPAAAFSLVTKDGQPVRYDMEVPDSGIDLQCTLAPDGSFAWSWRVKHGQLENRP
Experimental: Inhibition of Recombinant Human NF-kappaB-inducing Kinase (NIK/MAP3K14) Activity
Assay buffer was 50 mM Tris pH 7.5 containing 1 mM EGTA (ethylene glycol tetraacetic acid), 1 mM DTT (dithiothreitol), 0.1 mM Na3VO4, 5 mM MgCl2, 0.01% Tween® 20. Assays were carried out in 384 well Mesoscale high binding plates which had been coated with myelin basic protein (MBP) and blocked with bovine serum albumin to prevent non-specific protein binding. All compounds tested were dissolved in dimethyl sulfoxide (DMSO) and further dilutions were made in assay buffer. Final DMSO concentration was 1% (v/v) in assays. Incubations consisted of compound (1% DMSO in control and blank wells), 25 μM Adenosine-5′-triphosphate (ATP), and 10 nM NIK/MAP3K14 substituting enzyme with buffer in the blank wells. Incubations were carried out for 1 h at 25° C. and were followed by washing and sequential incubation with rabbit anti-phospho-MBP and anti-rabbit Ig Sulfotag antibody before reading bound Sulfotag on a Mesoscale Discovery. Signal obtained in the wells containing blank samples was subtracted from all other wells and IC50's were determined by fitting a sigmoidal curve to % inhibition of control versus Log10 compound concentration.

[2] = target: T1, Recombinant Human NF-kappaB-inducing Kinase (NIK/MAP3K14); assay: Biological Assay A2: inhibition of auto-phosphorylation of recombinant human NIK/MAP3K14 (AlphaScreen); type: biochemical; conditions: 25 microM ATP, 0.2 nM GST-tagged NIK/MAP3K14, 1 h at 25° C., averaged values, read-out: Alpha-Screen IC50
Experimental: Inhibition of Auto-phosphorylation of Recombinant Human NF-kappaB-inducing Kinase (NIK/MAP3K14) Activity (AlphaScreen®)
NIK/MAP3K14 auto-phosphorylation activity was measured using the AlphaScreen® (αscreen) format (Perkin Elmer). All compounds tested were dissolved in dimethyl sulfoxide (DMSO) and further dilutions were made in assay buffer. Final DMSO concentration was 1% (v/v) in assays. Assay buffer was 50 mM Tris pH 7.5 containing 1 mM EGTA (ethylene glycol tetraacetic acid), 1 mM DTT (dithiothreitol), 0.1 mM Na3VO4, 5 mM MgCl2, 0.01% Tween® 20. Assays were carried out in 384 well Alphaplates (Perkin Elmer). Incubations consisted of compound, 25 microM Adenosine-5′-triphosphate (ATP), and 0.2 nM NIK/MAP3K14. Incubations were initiated by addition of GST-tagged NIK/MAP3K14 enzyme, carried out for 1 h at 25° C. and terminated by addition of stop buffer containing anti-phospho-IKK Ser176/180 antibody. Protein A Acceptor and Glutathione-Donor beads were added before reading using an EnVision® Multilabel Plate Reader (Perkin Elmer). Signal obtained in the wells containing blank samples was subtracted from all other wells and IC50's were determined by fitting a sigmoidal curve to % inhibition of control versus Log10 compound concentration.

[3] = tested on: P-IKKα levels in L363 cells; assay: Biological Assay B: effect of compounds on P-IKKα levels in L363 cells; type: cell-based; conditions: Homo sapiens, L-363; L363 cells with BAFF, 2 hr treatment; averaged values; read-out: IKKα Cellular IC50
Experimental: Effect of Compounds on P-IKKα Levels in L363 Cells
All compounds tested were dissolved in DMSO and further dilutions were made in culture medium. Final DMSO concentration was 1% (v/v) in cell assays. The human L363 cells (ATCC) were cultured in RPMI 1640 medium supplemented with GlutaMax and 10% fetal calf serum (PAA). Cells were routinely maintained at densities of 0.2×10^6 cells per ml-1×10^6 cells per ml at 37° C. in a humidified 5% CO2 atmosphere. Cells were passaged twice a week splitting back to obtain the low density. Cells were seeded in 96 well plates (Nunc 167008) at 2×10^6 per ml media in a volume of 75 μl per well plus 25 μl 1 μg/ml recombinant human B-cell activating factor (BAFF/BLyS/TNFSF13B). Seeded cells were incubated at 37° C. in a humidified 5% CO2 atmosphere for 24 hr. Drugs and/or solvents were added (20 μl) to a final volume of 120 μl. Following 2 hr treatment plates were removed from the incubator and cell lysis was achieved by the addition of 30 μl 5× lysis buffer followed by shaking on a plate shaker at 4° C. for 10 min. At the end of this incubation lysed cells were centrifuged at 800×g for 20 min at 4° C. and the lysate was assessed for P-IKKα levels by sandwich immuno-assay carried out in anti-rabbit antibody coated Mesoscale plates. Within an experiment, the results for each treatment were the mean of 2 replicate wells. For initial screening purposes, compounds were tested using an 8 point dilution curve (serial 1:3 dilutions). For each experiment, controls (containing MG132 and BAFF but no test drug) and a blank incubation (containing MG132 and BAFF and 10 μM ADS125117, a test concentration known to give full inhibition) were run in parallel. The blank incubation value was subtracted from all control and sample values. To determine the IC50 a sigmoidal curve was fitted to the plot of % inhibition of control P-IKKα levels versus Log10 compound concentration.

[4] = tested on: JJN-3 cells; assay: Biological Assay C: antiproliferative activity on JJN-3 cells (CellTiter-Glo); type: cell-based; conditions: Homo sapiens, 72 hr of treatment, averaged values
Experimental: (§1) Determination of Antiproliferative Activity on LP-1, L-363 and JJN-3 Cells
(§2) All compounds tested were dissolved in DMSO and further dilutions were made in culture medium. Final DMSO concentration was 0.3% (v/v) in cell proliferation assays. Viability was assessed using CellTiter-Glo cell viability assay kit (Promega). The human LP-1, L-363 and JJN-3 cells (DSMZ) were cultured in RPMI 1640 medium supplemented with 2 mM L-glutamine, and 10% fetal calf serum (PAA). Cells were routinely kept as suspension cells at 37° C. in a humidified 5% CO2 atmosphere. Cells were passaged at a seeding density of 0.2×10^6/ml twice a week. Cells were seeded in black tissue culture treated 96-well plates (Perkin Elmer). Densities used for plating ranged from 2,000 to 6,000 cells per well in a total volume of 75 μl medium. After twenty four hours, drugs and/or solvents were added (25 μl) to a final volume of 100 μl. Following 72 hr of treatment plates were removed from the incubator and allowed to equilibrate to room temperature for approx 10 min. 100 μl CellTiter-Glo reagent was added to each well that was then covered (Perkin Elmer Topseal) and shaken on plate shaker for 10 min. Luminescence was measured on a HTS Topcount (Perkin Elmer). Within an experiment, the results for each treatment were the mean of 2 replicate wells. For initial screening purposes, compounds were tested using a 9 point dilution curve (serial 1:3 dilutions). For each experiment, controls (containing no drug) and a blank incubation (containing cells read at the time of compound addition) were run in parallel. The blank value was subtracted from all control and sample values. For each sample, the mean value for cell growth (in relative light units) was expressed as a percentage of the mean value for cell growth of the control.

[5] = tested on: L-363 cells; assay: Biological Assay C: antiproliferative activity on L-363 cells (CellTiter-Glo); type: cell-based; conditions: Homo sapiens, 72 hr of treatment, averaged values
Experimental: as §1, §2

[6] = tested on: LP-1 cells; assay: Biological Assay C: antiproliferative activity on LP-1 cells (CellTiter-Glo); type: cell-based; conditions: Homo sapiens, 72 hr of treatment, averaged values
Experimental: as §1, §2

| SMILES | IC50 [1] [nM] | IC50 [2] [nM] | IC50 [3] [nM] | EC50 [4] [nM] | EC50 [5] [nM] | EC50 [6] [nM] |
| --- | --- | --- | --- | --- | --- | --- |
| CC(C)(O)C#Cc1cc2c(-c3cn[nH]c3)cn(S(C)(=O)=O)c2cn1 [Compound 25] | 14 | 55 | 460 | 1900 | 2260 | 4980 |
| Cn1cc(-c2cn[nH]c2)c2cc(C#CC(C)(C)O)ncc21 [Compound 4] | 28 | 11 | 210 | 1150 | 1030 | 4720 |
| CCn1cc(-c2c[nH]nc2C)c2cc(C#CC(C)(C)O)ncc21 [Compound 30] | 29 | 23 | 149 | 1690 | 2410 | 8230 |
| COCCCn1cc(-c2cn[nH]c2)c2cc(C#CC(C)(C)O)ncc21 [Compound 18] | 45 | 41 | 167 | 1870 | 2540 | 6820 |
| CC(C)(O)C#Cc1cc2c(-c3c[nH]nc3C#N)cn(CC(C)(C)O)c2cn1 [Compound 32] | 68 | 44 | 1010 | 5670 | 22600 | > 30000 |
| CC(C)(O)C#Cc1cc2c(-c3cn[nH]c3)c[nH]c2cn1 [Compound 1] | 60 | 53 | 736 | 3340 | 6980 | > 30000 |
| CC(C)n1cc(-c2cn[nH]c2)c2cc(C#CC(C)(C)O)ncc21 [Compound 11] | 6 | 21 | 20 | 258 | 283 | 916 |
| CC(C)(O)Cn1cc(-c2cn[nH]c2)c2cc(C#CC(C)(O)c3nccs3)ncc21 (stereo not drawn) [Compound 15] | 10 | 43 | 47 | 3850 | > 30000 | > 30000 |
